Measured values as given in patent US9193731B2, “Antimicrobial compounds and methods of making and using the same” (Melinta Therapeutics, Inc., priority 2009, dated 2015).

Each compound was assayed on Escherichia coli strain ATCC25922 (assay: standard microdilution assay to determine minimum inhibitory concentrations (MICs)). Settings: Escherichia coli strain ATCC25922, microdilution.
Format: cell-based
How it was run: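 E. coli strain ATCC25922 tested per CLSI microdilution methodology (about 100 microliters per well) to find minimum inhibitory concentrations. Activity scored categorically at a 16 micrograms/ml threshold.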

Row | SMILES | E. coli ATCC25922 MIC
1 | N=C(N)NOCCNCc1ccc(-n2cc3cc(-c4ccc(S(=O)(=O)NC5CCNCC5)cc4)[nH]c3nc2=O)cc1 [Compound 1102] | + (a “+” indicates that the compound has an MIC value of 16 micrograms/ml or less)
2 | NCCCNCc1ccc(-n2cc3cc(-c4ccc(S(=O)(=O)N(CC5COCCO5)C5CCCNC5)cc4)[nH]c3nc2=O)cc1 (stereo not drawn) [Compound 846] | + (a “+” indicates that the compound has an MIC value of 16 micrograms/ml or less)
3 | NC(N)=NCCCNCc1ccc(-n2cc3cc(CCS(=O)(=O)CCNC4CCNCC4)[nH]c3nc2=O)cc1 [Compound 1251] | + (a “+” indicates that the compound has an MIC value of 16 micrograms/ml or less)
4 | N=C(N)NCCCNCc1ccc(-n2cc3cc(-c4cc(CNCCc5ccc(F)cc5)cc(N5CCNCC5)c4)[nH]c3nc2=O)cc1 [Compound 1044] | + (a “+” indicates that the compound has an MIC value of 16 micrograms/ml or less)
5 | CN1CCN(CCCN(C2CCNCC2)S(=O)(=O)c2ccc(-c3cc4cn(-c5ccc(CN6CC[C@@H](NC(=N)N)C6)cc5)c(=O)nc4[nH]3)cc2)CC1 [Compound 1207] | − (a “−” indicates that the compound has an MIC value greater than 16 micrograms/ml)
6 | N=C(N)NCCCNCc1ccc(-n2cc3cc(-c4cccc(S(=O)(=O)N(CCN5CCCCC5)C5CCNCC5)c4)[nH]c3nc2=O)cc1 [Compound 1077] | + (a “+” indicates that the compound has an MIC value of 16 micrograms/ml or less)
7 | N=C(N)NCCCNCc1ccc(-n2cc3cc(-c4cccc(S(=O)(=O)CCCN)c4)[nH]c3nc2=O)cc1 [Compound 1460] | + (a “+” indicates that the compound has an MIC value of 16 micrograms/ml or less)
8 | N=C(N)NCCCNCc1ccc(-n2cc3cc(-c4cccc(SCCCN)c4)[nH]c3nc2=O)cc1 [Compound 1405] | + (a “+” indicates that the compound has an MIC value of 16 micrograms/ml or less)

Same assay, conditions: Escherichia coli, ATCC25922, Escherichia coli strain ATCC25922, microdilution; read-out: E. coli ATCC25922 MIC

Row | MIC | SMILES
9 | > 16 µg/mL | NCCc1c[nH]c2cc(-n3cc4cc(CCS(=O)(=O)C5CCNCC5)[nH]c4nc3=O)ccc12 [Compound 1278]
10 | > 16 µg/mL | NCc1ccc(-n2cc3cc(-c4ccc(S(=O)(=O)NC5CCNCC5)c(Cl)c4)[nH]c3nc2=O)cc1F [Compound 272]
11 | > 16 µg/mL | CC(C)(N)c1cc2cn(-c3ccc(CNCCCN)cc3)c(=O)nc2[nH]1 [Compound 625]
12 | > 16 µg/mL | N=C(N)NCCCNCc1ccc(-n2cc3cc(CN4CCS(=O)(=O)CC4)[nH]c3nc2=O)cc1 [Compound 628]
13 | < 16 µg/mL | N=C(N)CCCN1CCCC(c2cc3cn(-c4ccc(CNCCCNC(=N)N)cc4)c(=O)nc3[nH]2)C1 (stereo not drawn) [Compound 2020a]
14 | > 16 µg/mL | CO[C@@H](CN)COc1cccc(-c2cc3cn(-c4ccc(CN)cc4)c(=O)nc3[nH]2)c1 [Compound 1444]
15 | > 16 µg/mL | N=C(N)NCCCNCc1ccc(-c2cn3nc(C4CC4)[nH]c3nc2=O)cc1 [Compound 661]
16 | > 16 µg/mL | NCCCNCc1ccc(-n2cc3cc(-c4ccccc4OC(F)(F)F)[nH]c3nc2=O)cc1 [Compound 309]
17 | < 16 µg/mL | N=C(N)NCCCNCc1ccc(-n2cc3cc(-c4ccc(S(=O)(=O)N(Cc5ccncc5)C5CCNCC5)cc4)[nH]c3nc2=O)cc1 [Compound 757]
18 | > 16 µg/mL | NCCCCCN1CCN(c2cn3cc(-c4ccc(Br)cc4)[nH]c3nc2=O)CC1 [Compound 883]
19 | > 16 µg/mL | NCCCNCc1ccc(-n2cc3cc(-c4ccccn4)[nH]c3nc2=O)cc1 [Compound 620]
20 | > 16 µg/mL | CCCCn1cc(CCN)c2ccc(-n3cc4cc(CCS(=O)(=O)C5CCNCC5)[nH]c4nc3=O)cc21 [Compound 1258]
21 | < 16 µg/mL | CN1CCN(c2cccc(-c3cc4cn(-c5ccc(CNCCCN)cc5)c(=O)nc4[nH]3)c2)CC1 [Compound 677]
22 | > 16 µg/mL | CN(C)CCOc1ccccc1-c1cc2cn(-c3ccc(CNCCCNC(=N)N)cc3)c(=O)nc2[nH]1 [Compound 1167]
23 | < 16 µg/mL | N=C(N)NCCCNCc1ccc(-n2cc3cc([C@@H]4C[C@@H](N)[C@@H](CO)O4)[nH]c3nc2=O)cc1 [Compound 1267]
24 | > 16 µg/mL | CS(=O)(=O)N1CCN(C(=O)c2ccc(-c3cn4cc(-c5ccc(CNCCCNC(=N)N)cc5)c(=O)nc4[nH]3)cc2)CC1 [Compound 716]
